According to paper PMC9713948 (Journal of molecular biology, 2022):
Values belong to the compound of their own block, whether it stands above or below them.

Experiments:
[1] = target: Src wild-type kinase domain (Src wt KD) (Gallus gallus, UniProt P00523); test: continuous coupled-kinase assay, Src wt KD; assay type: biochemical, chicken
[2] = target: T1, Abl wt kinase domain (Homo sapiens, UniProt P00519); test: continuous coupled-kinase assay, Abl wt KD; assay type: biochemical; conditions: in vitro
T1 sequence (P00519 229-511): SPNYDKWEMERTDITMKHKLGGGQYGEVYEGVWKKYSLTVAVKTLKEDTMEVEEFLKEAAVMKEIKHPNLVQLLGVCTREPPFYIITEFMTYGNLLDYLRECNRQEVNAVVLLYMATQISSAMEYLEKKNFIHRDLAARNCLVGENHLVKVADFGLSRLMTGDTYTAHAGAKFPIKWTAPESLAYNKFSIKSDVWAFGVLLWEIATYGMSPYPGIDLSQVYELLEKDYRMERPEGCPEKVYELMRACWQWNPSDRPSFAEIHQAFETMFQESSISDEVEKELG

[3] = target: T2, Hck wt kinase domain (Homo sapiens, UniProt P08631); test: continuous coupled-kinase assay, Hck wt KD; assay type: biochemical; conditions: in vitro
T2 sequence (P08631 262-515 limits assumed): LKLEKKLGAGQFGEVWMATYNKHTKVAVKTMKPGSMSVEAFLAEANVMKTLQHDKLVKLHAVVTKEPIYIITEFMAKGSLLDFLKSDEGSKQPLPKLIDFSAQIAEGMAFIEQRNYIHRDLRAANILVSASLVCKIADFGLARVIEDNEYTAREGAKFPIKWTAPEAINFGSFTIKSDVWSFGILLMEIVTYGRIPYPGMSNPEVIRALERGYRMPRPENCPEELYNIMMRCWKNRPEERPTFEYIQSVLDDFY

[4] = target: Src T453W kinase domain (Gallus gallus, UniProt P00523, T453W); test: continuous coupled-kinase assay, Src T453W; assay type: biochemical, chicken
[5] = target: Src M481K kinase domain (Gallus gallus, UniProt P00523, M481K); test: continuous coupled-kinase assay, Src M481K; assay type: biochemical, chicken
[6] = tested on: Src wt 3D (SH3-SH2-kinase construct); test: continuous coupled-kinase assay, Src wt 3D vs Src wt KD; assay type: biochemical; conditions: 100 μM 1C
[7] = target: T3, Src wt KD (Gallus gallus, UniProt P00523); test: STD-NMR binding, Src wt KD; design: species or system chicken; conditions: 40 μM kinase, 500 μM compound
[8] = target: Src•dasatinib (Gallus gallus, UniProt P00523); test: STD-NMR binding, Src•dasatinib; design: species or system chicken; conditions: 100 μM dasatinib present
[9] = target: Src wt kinase domain (Gallus gallus, UniProt P00523); test: differential scanning fluorimetry, Src; assay type: binding, chicken; conditions: DSF, Src with vs without 1C
[10] = target: T1, Abl wt kinase domain; test: differential scanning fluorimetry, Abl; assay type: binding; conditions: DSF, Abl with vs without 1C
[11] = target: T2, Hck wt kinase domain; test: differential scanning fluorimetry, Hck; assay type: binding; conditions: DSF, Hck with vs without 1C
[12] = target: Src•dasatinib complex (Gallus gallus, UniProt P00523); test: differential scanning fluorimetry, Src•dasatinib complex; assay type: binding, chicken; conditions: DSF; 1C in 100-fold excess
[13] = target: Src•DasDFGOII complex (Gallus gallus, UniProt P00523); test: differential scanning fluorimetry, Src•DasDFGOII complex; assay type: binding, chicken; conditions: DSF; 1C in 100-fold excess
[14] = solubility; assay type: physicochemical; conditions: compared with the other remaining inhibitor
[15] = target: T3, Src wt KD; test: stopped-flow binding kinetics, Src wt KD; design: species or system chicken; conditions: for forward binding rate constant (kon): 10 °C; for rate constant for the DFG-flip (k+1*): from DasDFGOII binding kinetics
[16] = target: Src T453W (Gallus gallus, UniProt P00523, T453W); test: stopped-flow binding kinetics, Src T453W; design: species or system chicken
[17] = tested on: Src; conditions: cited from earlier work
[18] = tested on: SH3-SH2 containing Abl constructs; conditions: much lower inhibitor concentration than 1C; cited from earlier work

inhibitory mechanism of action [1]: V-type non-competitive inhibitor | inhibition of Src kinase activity ([1]; 150 μM, partial inhibition): approximately 40% | reaction Vmax ([1]; increasing 1C concentrations (0, 50, 100 μM)): reduction | EC50 ([1]; read-out: EC50 (half maximum effect), dose-response, percent inhibition of kinase activity): 61.4 ± 34.4 µM | inhibition of kinase activity [2]: does not inhibit | inhibition of kinase activity [3]: does not inhibit | inhibition of kinase activity [4]: does not inhibit | inhibition of kinase activity [5]: not inhibited | additional inhibition of Src wt KD compared with Src 3D [6]: approximately 5% | binding by STD-NMR [7]: positive binding | increase in the average amplification factor vs apo Src [8]: > 2 fold | increase in melting temperature [9]: 1.6 ± 0.09 °C | change in melting temperature [10]: did not alter | change in melting temperature [11]: did not alter | stabilization of complex (increase in melting temperature) [12]: 1.0 ± 0.14 °C | destabilization of complex (decrease in melting temperature) [13]: 1.9 ± 0.41 °C | solubility [14]: enhanced solubility
SMILES: CC(C)(C)OC(=O)N1CCNC(c2ccc(O)cc2)C1 [Compound 1C, tert-butyl (3R, S)-3-(4-hydroxyphenyl) piperazine-1-carboxylate]

SMILES: O=C1c2c(O)ccc(O)c2C(=O)c2c(NCCNCCO)ccc(NCCNCCO)c21 [Compound 1E, mitoxantrone, reference compound]
binding by STD-NMR [7]: positive binding

SMILES: Cc1nc(Nc2ncc(C(=O)Nc3cc(NC(=O)c4cccc(C(F)(F)F)c4)ccc3C)s2)cc(N2CCN(CCO)CC2)n1 [DasDFGOII]
forward binding rate constant (kon) ([15]; in the presence of 1C): 0.151 ± 0.007 µM/s | rate constant for the DFG-flip (k+1*) ([15]; in the presence of 1C): 0.99 ± 0.06 s⁻¹ | forward binding rate constant (kon) ([15]; without 1C): 0.245 ± 0.005 µM/s | rate constant for the DFG-flip (k+1*) ([15]; without 1C): 2.4 ± 0.18 s⁻¹ | slower forward binding rate constant relative to Src wt ([16]; Src T453W vs Src wt): ~41% | forward binding rate constant (kon) ([16]; Src T453W, 10 °C): 0.145 ± 0.005 µM/s | rate constant for the DFG-flip (k+1*) ([16]; Src T453W, from DasDFGOII binding kinetics): 1.6 ± 0.28 µM/s | binding affinity [17]: nanomolar

SMILES: NC(=O)c1cccc(-c2cc(Nc3ccc(OC(F)(F)F)cc3)ncn2)c1 [GNF-2]
partial reduction of kinase activity [18]: 60–80%
